# Assay results as given in patent US9849170B2, “Microneedle coating composition and microneedle device” (priority 2013, dated 2017).
# Experiment: Blending effect of lysine hydrochloride on stability (L9 orthogonal table)
# Format: physicochemical
# Conditions: 2.5% or 5.0% lysine hydrochloride blended; 50° C., 2 weeks; least-squares analysis, FIG. 4
# Description: A Japanese encephalitis vaccine antigen application solution comprising 70% by mass of a mixture of arginine and an acid, where the blending ratio of each component (unit: % by mass) and the molar ratio of arginine and the acid are shown in Table 7, was applied onto microneedles, and the blending effect of the lysine hydrochloride was evaluated using an L9 orthogonal table. In Table 7, the numerical values in parentheses for each component denote the blending ratios (unit: % by mass) after removal of the volatile component.
# A PBS solution of a Japanese encephalitis vaccine antigen was used as a bulk drug, this bulk drug was concentrated by ultrafiltration, and a predetermined amount of an additive was added to the concentrate, followed by mixing to obtain an application solution for microneedles. […] After drying, the microneedles were sealed in MoistCatch (trade name, Kyodo Printing Co., Ltd.) together with PharmaKeep (trade name, Mitsubishi Gas Chemical Company, Inc.), and the stability under each temperature condition was evaluated. […] For the specific activity level of each sample preserved at 50° C. for 2 weeks, the degree of influence by blending of lysine hydrochloride on the specific activity was analyzed by a least-squares method. […]
structure (smiles),measurement,value
Cl.NCCCC[C@H](N)C(=O)O [lysine hydrochloride],degree of influence on the specific activity,high
